Experimental data: publication PMC9797592, “TJ-M2010-5, a novel CNS drug candidate, attenuates acute cerebral ischemia-reperfusion injury through the MyD88/NF-κB and ERK pathway” (Frontiers in Pharmacology, 2022)

Tested on: MyD88/NF-κB and ERK signaling pathway
Experiment: Simple Western / RT-qPCR of MyD88/NF-κB and ERK pathway in the brain of CIRI mice
Assay type: in vivo, C57BL/6 mice
Conditions: TJ-5 15 mg/kg
Description: Total mRNA was extracted from the brain cortex using TRIzol reagent and reverse-transcribed into cDNA using the PrimeScript™ RT reagent kit (Takara, Japan), following the manufacturer’s instructions. RT-qPCR was performed using SYBR Green Real-time PCR Master Mix (Takara, Japan) with the Step One System (Life Technologies). The results were expressed as fold change from the untreated control and analyzed using the 2^−ΔΔCt method. The primers were as follows (5′–3′): MyD88 forward: TTTATCTGCTACTGCCCCAACG, reverse: GCGGCGACACCTTTTCTCA; TLR4 forward: ATGCTGCAACTGATGTTCCTTC, reverse: GATGTTAGACCTTTCTTCCTCCC; GAPDH forward: TGTTCCTACCCCCAATGTGTCC, reverse: GGAGTTGCTGTTGAAGTCGCAG; TNF-α forward: ATGGCCTCCCTCTCATCAGT, reverse: TGGTTTGCTACGACGTGGG; IL-6 forward: AGTGGCTAAGGACCAAGAC, reverse: ATAACGCACTAGGTTTGCCGA; iNOS forward: ATTCACAGCTCATCCGGTACG, reverse: GGATCTTGACCATCAGCTTGC; IL-1β forward: GCACTACAGGCTCCGAGATGAA, reverse: GTCGTTGCTTGGTTCTCCTTGT.
Here, Simple Western, a novel immunoassay to detect proteins in the brain, was used, as previously described ([Kannan et al., 2018]; [Nanki et al., 2018]). Briefly, the prepared proteins were diluted to a concentration of 0.5 mg/ml using a sample preparation kit (Protein Simple, United States). Then, according to the manufacturer’s instructions, the prepared reagents were added to the detection plate sequentially for processing in an automated capillary electrophoresis system (Simple Western system). The primary antibodies recognized HMGB1, TLR4, MyD88, NeuN, P-ERK, P-IκBα, IκBα, NF-κB p65 (CST, 1:50), Histone H3 (ABclonal, 1:50), and GAPDH (ABclonal, 1:1000). Compass for SW software v4.0.0 (Protein Simple, United States) was used to quantitatively analyze the signal intensity (area) of the protein.

Q: For O=C(CCN1CCN(Cc2ccccc2)CC1)Nc1nc(-c2ccccc2)cs1 [TJ-5], which “expression of HMGB1, TLR4, and MyD88 in the ischemic hemisphere” value is on record?
A: downregulated

Q: And the “phosphorylation of ERK in the ischemic hemisphere” value?
A: inhibited

Q: What about the “phosphorylation of IκBα and nuclear translocation of NF-κB p65 in the ischemic hemisphere” value of the same molecule?
A: reduced

Q: And the “NeuN protein levels in the brain” value (I/R-induced decrease)?
A: attenuated this decrease
